US20150132813A1, “BIOSYNTHETIC PATHWAYS, RECOMBINANT CELLS, AND METHODS” (REGENTS OF THE UNIVERSITY OF MINNESOTA, priority 2012, published 2015)

Test system: α-ketoglutaric semialdehyde dehydrogenase KDHba
Experiment: Enzymatic assay of KDHba (NADH absorbance at 340 nm)
Assay type: biochemical, Burkholderia ambifaria
[1] = substrate of KDHba, pH 8.0, 0.5 mM NAD+

## CCCCC=O [Valeraldehyde, valeraldehyde]
[1]
  Km: 31 µM
  kcat: 8.69 ± 0.26 s⁻¹
Versus isobutyraldehyde
  specificity constant (kcat/KM) of KDHba, fold higher than toward isobutyraldehyde: 1260 fold
Versus isovaleraldehyde
  specificity constant (kcat/KM) of KDHba, fold higher than toward isovaleraldehyde: 308 fold
